For 19 compounds, IC50 results are on record in patent publication US20250154138A1, “Small Molecule IL-17A Modulators” (BeiGene, Ltd., priority 2022, published 2025).

Assay [1] concerns IL-17-induced GROα secretion from HT-29 cells. Nature of the assay: GROα release assay in human colorectal adenocarcinoma epithelial cell (HT-29, ELISA). The note with it: Homo sapiens, HT-29, 48 h, 10 ng/mL IL-17A, highest concentration 10 μM, read-out: Cellular assay HT29 cell/CXCL1 IC50. The class given is cell-based. The procedure, abridged:
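IC50 values come from four-parameter fits of GROα levels, quantified by ELISA (450 nm, standard curve) in supernatants. Compounds, 4-fold serially diluted from 10 μM, were mixed 15 min with IL-17A (10 ng/mL final) before 48 h incubation with HT-29 cells at 37°C.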

The target of assay [2] is human IL-17A / human IL-17RA (Homo sapiens (Human), UniProt Q16552). Nature of the assay: Human IL-17A biochemical assay (HTRF, blocking of IL-17A binding to IL-17RA). To be noted: 0.4 nM IL-17A, 0.3 nM IL-17RA, max compound concentration 10 uM. The procedure, abridged:
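In this time-resolved fluorescence format, the cytokine (0.4 nM) is exposed to compound for 3 h before 0.3 nM receptor is added for 1 h, with all incubations at room temperature in HEPES buffer, pH 7.5. The 620/665 nm signal ratio gives percent inhibition, and IC50 is taken from a 4-parameter curve.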

human IL-17A / human IL-17RA, sequence (Q16552 24-155): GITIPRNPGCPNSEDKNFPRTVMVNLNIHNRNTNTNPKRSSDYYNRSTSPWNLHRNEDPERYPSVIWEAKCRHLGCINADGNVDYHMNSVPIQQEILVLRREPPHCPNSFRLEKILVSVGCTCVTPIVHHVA

As for `CNC(=O)C1(N2CC3(CC3)CNC2=O)Cc2ccc(NC(=O)[C@@H](NC(=O)c3ccnn3C)C3CCCCC3)cc2C1` (stereo partly drawn) [Example 102, N-((1S)-1-cyclohexyl-2-((2-(methylcarbamoyl)-2-(6-oxo-5,7-diazaspiro[2.5]octan-5-yl)-2,3-dihydro-1H-inden-5-yl)amino)-2-oxoethyl)-1-methyl-1H-pyrazole-5-carboxamide], the IC50 turned out to be 17.3 nM in assay [1] and 9.5 nM in assay [2].
For `CC1CN(C2(C(=O)O)Cc3ccc(NC(=O)[C@@H](NC(=O)c4ccnn4C)C4CCCCC4)cc3C2)C(=O)N1` (stereo partly drawn) [Example 23, 5-((S)-2-cyclohexyl-2-(1-methyl-1H-pyrazole-5-carboxamido)acetamido)-2-(4-methyl-2-oxoimidazolidin-1-yl)-2,3-dihydro-1H-indene-2-carboxylic acid], in that order: 3660 nM and 640 nM.
On the same counts, the results for `Cc1nonc1C(=O)N[C@H](C(=O)Nc1ccc2c(c1)CC(C(=O)NC1CC1(F)F)(N1C[C@@H](C(C)C)NC1=O)C2)C(C1CC1)C1CC1` (stereo partly drawn) [Example 273, N-((2S)-1,1-dicyclopropyl-3-((2-((2,2-difluorocyclopropyl)carbamoyl)-2-((R)-4-isopropyl-2-oxoimidazolidin-1-yl)-2,3-dihydro-1H-inden-5-yl)amino)-3-oxopropan-2-yl)-4-methyl-1,2,5-oxadiazole-3-carboxamide] are 66.1 nM and 34.7 nM.
On the same counts, the results for `CNC(=O)C1(N2CC3(CC3)CNC2=O)Cc2ccc(NC(=O)[C@@H](NC(=O)c3ccc(C#N)n3C3CC3)C3CCCCC3)cc2C1` (stereo partly drawn) [Example 157, 5-cyano-N-((1S)-1-cyclohexyl-2-((2-(methylcarbamoyl)-2-(6-oxo-5,7-diazaspiro[2.5]octan-5-yl)-2,3-dihydro-1H-inden-5-yl)amino)-2-oxoethyl)-1-cyclopropyl-1H-pyrrole-2-carboxamide] are 398 nM and 37 nM.
With `CNC(=O)C1(N2C(=O)NC3CCC2C3)Cc2ccc(NC(=O)[C@@H](NC(=O)c3ccnn3C)C3CCCCC3)cc2C1` (stereo partly drawn) [Example 144, N-((1S)-1-cyclohexyl-2-((2-(methylcarbamoyl)-2-(3-oxo-2,4-diazabicyclo[3.2.1]octan-2-yl)-2,3-dihydro-1H-inden-5-yl)amino)-2-oxoethyl)-1-methyl-1H-pyrazole-5-carboxamide], the IC50 turned out to be 182 nM in assay [1] and 48.6 nM in assay [2].
`COc1ccccc1NC(=O)C1(N2C[C@@H](C(C)C)NC2=O)Cc2ccc(NC(=O)[C@@H](NC(=O)c3nonc3C)C(C3CC3)C3CC3)cc2C1` (stereo partly drawn) [Example 254, N-((2S)-1,1-dicyclopropyl-3-((2-((R)-4-isopropyl-2-oxoimidazolidin-1-yl)-2-((2-methoxyphenyl)carbamoyl)-2,3-dihydro-1H-inden-5-yl)amino)-3-oxopropan-2-yl)-4-methyl-1,2,5-oxadiazole-3-carboxamide]: the IC50 amounted to 318 nM in assay [1] and 178 nM in assay [2].
On the same counts, the results for `CNC(=O)C1(N2C[C@@H](C(C)C)NC2=O)Cc2ccc(NC(=O)C(NC(=O)c3ccnn3C)C3CCC4(CC3)CC4)cc2C1` (stereo partly drawn) [Example 112, N-(2-((2-((R)-4-isopropyl-2-oxoimidazolidin-1-yl)-2-(methylcarbamoyl)-2,3-dihydro-1H-inden-5-yl)amino)-2-oxo-1-(spiro[2.5]octan-6-yl)ethyl)-1-methyl-1H-pyrazole-5-carboxamide] are 181 nM and 41 nM.
With `CNC(=O)C1(N2C[C@@H](C(C)C)NC2=O)Cc2ccc(NC(=O)[C@@H](NC(=O)c3ccnn3C(C)C)C(C3CC3)C3CC3)cc2C1` (stereo partly drawn) [Example 91, N-((2S)-1,1-dicyclopropyl-3-((2-((R)-4-isopropyl-2-oxoimidazolidin-1-yl)-2-(methylcarbamoyl)-2,3-dihydro-1H-inden-5-yl)amino)-3-oxopropan-2-yl)-1-isopropyl-1H-pyrazole-5-carboxamide], the results for the IC50 in assay [1] and in assay [2] were 43 nM and 71 nM, respectively.
For `Cc1nonc1C(=O)N[C@H](C(=O)Nc1ccc2c(c1)CC(C(=O)NCc1cccnn1)(N1CC3(CC3)CNC1=O)C2)C1CCC(F)(F)CC1` (stereo partly drawn) [Example 228, N-((1S)-1-(4,4-difluorocyclohexyl)-2-oxo-2-((2-(6-oxo-5,7-diazaspiro[2.5]octan-5-yl)-2-((pyridazin-3-ylmethyl)carbamoyl)-2,3-dihydro-1H-inden-5-yl)amino)ethyl)-4-methyl-1,2,5-oxadiazole-3-carboxamide], the IC50 in assay [1] was determined as 49.1 nM; in assay [2] it was 15.9 nM.
Take `Cc1nonc1C(=O)N[C@H](C(=O)Nc1ccc2c(c1)CC(C(=O)NC(C1CC1)C1CC1)(N1C[C@@H](C(C)C)NC1=O)C2)C(C1CC1)C1CC1` (stereo partly drawn) [Example 281, N-((2S)-1,1-dicyclopropyl-3-((2-((dicyclopropylmethyl)carbamoyl)-2-((R)-4-isopropyl-2-oxoimidazolidin-1-yl)-2,3-dihydro-1H-inden-5-yl)amino)-3-oxopropan-2-yl)-4-methyl-1,2,5-oxadiazole-3-carboxamide]: the IC50 is 67.4 nM in assay [1] and 16.5 nM in assay [2].
With `Cc1nonc1C(=O)N[C@H](C(=O)Nc1ccc2c(c1)CC(C(=O)NC1CCC(F)(F)C1)(N1CC3(CC3)CNC1=O)C2)C1CCC(F)(F)CC1` (stereo partly drawn) [Example 190, N-((1S)-1-(4,4-difluorocyclohexyl)-2-((2-((3,3-difluorocyclopentyl)carbamoyl)-2-(6-oxo-5,7-diazaspiro[2.5]octan-5-yl)-2,3-dihydro-1H-inden-5-yl)amino)-2-oxoethyl)-4-methyl-1,2,5-oxadiazole-3-carboxamide], the IC50 in assay [1] came to 139 nM; in assay [2], 87.1 nM.
For `Cn1nccc1C(=O)N[C@H](C(=O)Nc1ccc2c(c1)CC(CNc1ccccc1)(N1CC3(CC3)CNC1=O)C2)C1CCCCC1` (stereo partly drawn) [Example 161, N-((1S)-1-cyclohexyl-2-oxo-2-((2-(6-oxo-5,7-diazaspiro[2.5]octan-5-yl)-2-((phenylamino)methyl)-2,3-dihydro-1H-inden-5-yl)amino)ethyl)-1-methyl-1H-pyrazole-5-carboxamide], in that order: 146 nM and 121 nM.
`Cc1nonc1C(=O)N[C@H](C(=O)Nc1ccc2c(c1)CC(c1ccc(F)cc1)(N1C[C@@H](C(C)C)NC1=O)C2)C(C1CC1)C1CC1` (stereo partly drawn) [Example 251, N-((2S)-1,1-dicyclopropyl-3-((2-(4-fluorophenyl)-2-((R)-4-isopropyl-2-oxoimidazolidin-1-yl)-2,3-dihydro-1H-inden-5-yl)amino)-3-oxopropan-2-yl)-4-methyl-1,2,5-oxadiazole-3-carboxamide]: the IC50 in assay [1] and in assay [2] was 1510 nM throughout.
As to `CNC(=O)C1(N2CC3(CC3)CNC2=O)Cc2ccc(NC(=O)[C@@H](NC(=O)c3ccnn3C(C)C)C(C3CC3)C3CC3)cc2C1` (stereo partly drawn) [Example 115, N-((2S)-1,1-dicyclopropyl-3-((2-(methylcarbamoyl)-2-(6-oxo-5,7-diazaspiro[2.5]octan-5-yl)-2,3-dihydro-1H-inden-5-yl)amino)-3-oxopropan-2-yl)-1-isopropyl-1H-pyrazole-5-carboxamide], the results for the IC50 in assay [1] and in assay [2] were 72.4 nM and 258 nM, respectively.
With `COCC1(N2CC(C)NC2=O)Cc2ccc(NC(=O)[C@@H](NC(=O)c3ccnn3C)C3CCCCC3)cc2C1` (stereo partly drawn) [Example 2, N-((1S)-1-cyclohexyl-2-((2-(methoxymethyl)-2-(4-methyl-2-oxoimidazolidin-1-yl)-2,3-dihydro-1H-inden-5-yl)amino)-2-oxoethyl)-1-methyl-1H-pyrazole-5-carboxamide], the values for the IC50 in assay [1] and in assay [2] were 2560 nM and 1100 nM, respectively.
For `CNC(=O)C1(N2C[C@@H](C(C)C)NC2=O)Cc2ccc(NC(=O)[C@@H](NC(=O)c3cccc(C)c3)C3CCCCC3)cc2C1` (stereo partly drawn) [Example 71, 5-((S)-2-cyclohexyl-2-(3-methylbenzamido)acetamido)-2-((R)-4-isopropyl-2-oxoimidazolidin-1-yl)-N-methyl-2,3-dihydro-1H-indene-2-carboxamide], in that order: 217 nM and 21 nM.
In the case of `CNC(=O)C1(N2CC3(CNC2=O)CC(F)(F)C3)Cc2ccc(NC(=O)[C@@H](NC(=O)c3ccnn3C)C3CCCCC3)cc2C1` (stereo partly drawn) [Example 174, N-((1S)-1-cyclohexyl-2-((2-(2,2-difluoro-7-oxo-6,8-diazaspiro[3.5]nonan-6-yl)-2-(methylcarbamoyl)-2,3-dihydro-1H-inden-5-yl)amino)-2-oxoethyl)-1-methyl-1H-pyrazole-5-carboxamide], the values for the IC50 in assay [1] and in assay [2] were 485 nM and 264 nM, respectively.
`Cn1nccc1C(=O)N[C@H](C(=O)Nc1ccc2c(c1)OCC(CN1CC(C(F)(F)F)NC1=O)C2)C1CCCCC1` (stereo partly drawn) [Example 291, N-((1S)-1-cyclohexyl-2-oxo-2-((3-(((S)-2-oxo-4-(trifluoromethyl)imidazolidin-1-yl)methyl)chroman-7-yl)amino)ethyl)-1-methyl-1H-pyrazole-5-carboxamide]: the figures for the IC50 in assay [1] and in assay [2] were 1060 nM and 1550 nM, respectively.
Take `CC(C)[C@@H]1CN(CC2Cc3ccc(NC(=O)[C@@H](NC(=O)c4ccnn4C(C)C)C(C4CC4)C4CC4)cc3N2C)C(=O)N1` (stereo partly drawn) [Example 287, N-((2S)-1,1-dicyclopropyl-3-((2-(((R)-4-isopropyl-2-oxoimidazolidin-1-yl)methyl)-1-methylindolin-6-yl)amino)-3-oxopropan-2-yl)-1-isopropyl-1H-pyrazole-5-carboxamide]: the IC50 in assay [1] amounted to 222 nM; in assay [2] it was 61.5 nM.
